Source: article PMC7456776, “The utility of a differentiated preclinical liver model, HepaRG cells, in investigating delayed toxicity via inhibition of mitochondrial-replication induced by fialuridine” (Toxicology and Applied Pharmacology, 2020)
Entries after “also recorded” stand apart in the source; their conditions may differ. Like-named read-outs stand apart in the source and are kept apart here.

Key:
HepaRG cells [1] = assay: Metabolic modification assay: dual ATP and cell viability (total cellular protein) assessment, extended dosing; format: cell-based, human
Experimental: In accordance with Biopredic international guidelines, undifferentiated HepaRG cells were seeded into clear flat bottomed 96 well (9000 cells/well) or Seahorse plates (4000 cells/well). They were grown for two weeks in growth media before their differentiation over 2 further weeks in differentiation media. Cells were kept at 37 °C, 5% CO2 in a humidified environment and received fresh, appropriate media twice a week. The fully differentiated cells were then used over the following four-week period, whilst being maintained in differentiation media. All experiments were performed using cells at passage number < 20.
(§1) Differentiated HepaRG cells were treated with 0–300 μM final concentrations of FIAU (1–4 weeks). FIAU was replaced in fresh differentiation media every 3–4 days. The final concentration of DMSO was at a constant 0.5% v/v in both HepaRG and HepG2 treatments. In all experiments dosing was performed in glucose supplemented media.
This was performed as previously described ([Kamalian et al., 2018]). […] IC50 values were calculated using Prism (GraphPad, California, USA) (Table 1) and criteria applied to identify a compound as a direct mitochondrial toxin.
Each experiment was performed on three or more independent occasions (n ≥ 3). IC50 values were calculated using GraphPad Prism 7 software, and were expressed as a mean ± standard deviation (SD). For all other statistical analysis comparing the values obtained from treated cells to vehicle control an ANOVA was performed, with a Dunnett or Tukey post hoc analysis where appropriate. P values lower than 0.05 were considered as statistically significant for both tests.

HepaRG cells [2] = assay: Seahorse XFe mitochondrial stress test (oxygen consumption, extracellular acidification); format: cell-based, human
Experimental: (§2) Briefly, following the dosing period, media was switched to unbuffered XF basal medium (175 μl, pH 7.4) supplemented with glucose (25 mM), L-glutamine (2 mM) and sodium pyruvate (1 mM) before incubating in a CO2 free incubator (37 °C). Oxygen consumption was measured by Seahorse XFe96 according to the previously described protocol ([Kamalian et al., 2018]).

HepaRG cells [3] = conditions: human, 12 μM
Experimental: Samples were prepared for transmission electron microscopy (TEM) in 3 cm dishes as follows. Cells were fixed in 2.5% (w/v) glutaraldehyde in 0.1 M phosphate buffer (pH 7.4) before staining with reduced osmium (2% (w/v) OsO4, 1.5% (w/v) potassium ferrocyanide in ddH2O), 1% (w/v) thiocarbohydrazide, 2% OsO4 (w/v in ddH20), then 1% (w/v) aqueous uranyl acetate overnight at 4 °C. The next day samples were finally stained with Walton's lead aspartate (0.02 M lead nitrate, 0.03 M aspartic acid, pH 5.5). To prevent precipitation artefacts the cells were washed copiously with ddH2O between each staining step. […] Dehydration was in a graded ethanol series before filtration and embedding in medium premix resin (TAAB, Reading, UK).
For TEM, 70–74 nm serial sections were cut using a UC6 ultra microtome (Leica Microsystems, Wetzlar, Germany) and collected on Formvar (0.25% (w/v) in chloroform, TAAB, Reading, UK) coated Gilder 200 mesh copper grids (GG017/C, TAAB, Reading, UK). […]
Resultant TEM images were analysed using Image J software to measure intracellular mitochondrial features (NIH, USA). […] In brief, total mitochondria number per cell was counted as well as mitochondria area (μM^2) alongside cytosol area (calculated as total cell area minus nuclear area and vacuole area μM^2).

HepaRG cells [4] = assay: Cellular steatosis by Oil Red O staining; format: cell-based, human; conditions: 12 μM, 4 weeks
Experimental: Following drug treatment cells were washed twice in PBS and fixed in 4% paraformaldehyde (1 h, RT). Cells were then washed twice in ddH2O and incubated in isopropanol (IPA, 60% v/v, 5 min). Oil red O working solution (3:2 in ddH2O from the stock solution of 0.33% w/v in 100% IPA) was applied to the cells for 20 min. Background staining was removed by several washes with ddH2O and a 5 min wash in 60% v/v IPA. The intracellular lipid was extracted by 100% IPA after the wells were dried. The lipid content was quantified by reading the optical density at 540 nm on a Varioskan Flash (Thermo Fisher Scientific, USA).

HepG2 cells [5] = test system: HepG2 cells; set-up: method as in Colacino et al., 1994; conditions: 9 days, 30 μM, ref Colacino et al., 1994; cited from earlier work
HepG2 cells [6] = assay: Metabolic modification assay: ATP and total cellular protein, 72 h; format: cell-based, human; conditions: for Total cellular protein, % of vehicle control: HepG2, 300 μM, 3 days
Experimental: HepG2 cells were cultured and maintained in DMEM media as described previously ([Kamalian et al., 2015]).
as §1
This was performed as previously described ([Kamalian et al., 2018]). Briefly, following the dosing period, media was switched to either “glucose” or “galactose” media for 2 h prior to measuring cellular ATP content and lactate dehydrogenase (LDH) release as a marker of cell viability, both normalised to protein content. IC50 values were calculated using Prism (GraphPad, California, USA) (Table 1) and criteria applied to identify a compound as a direct mitochondrial toxin.

PHH spheroids = test system: PHH spheroids; set-up: method as in Bell et al., 2016; conditions: 3D PHH spheroids, 7 days; ref Bell et al., 2016; cited from earlier work
HepG2 cells [7] = test system: HepG2 cells; set-up: method as in Colacino et al., 1994; conditions: 6 days of treatment, ref Colacino et al., 1994; cited from earlier work
HepaRG cells [8] = assay: Mitochondrial DNA content by real-time PCR (MT-ND1 normalised to RNase P); format: cell-based, human
Experimental: (§3) DNA was extracted via QIAamp DNA Mini Kit (Qiagen, Crawley, UK). Relative levels of mtDNA copy number were determined by real-time pre-designed PCR Taqman detection kits designed to target the mitochondrial MT-ND1 gene and the nuclear RNase P gene, using TAQMAN GT Master Mix. PCR reactions were performed according to standard conditions for TaqMan: 95 °C for 10 min; 40 cycles at (95 °C 15 s, 60 °C 1 min). PCR assays were performed in duplicate for each DNA sample. Analysis was undertaken with mitochondrial ND-1 normalised to genomic RNase P and treated sample to the appropriate vehicle.

[9] = test system: mitochondrial respiratory complexes I, II, IV in permeabilised HepaRG cells; assay: In-situ mito substrate assay of individual respiratory complex activity in permeabilised cells (Seahorse); format: cell-based, human; conditions: 12 μM
Text: The assessment of individual mitochondrial complex activity was preformed using the in-situ mito substrate assay in permeabilised cells using Seahorse Technology as previously described ([Ball et al., 2016]).

HepaRG cells [10] = assay: Cellular L-lactate release; format: cell-based, human; conditions: 12 μM, four-week exposure
Experimental: Following incubation with drug the media from cells was transferred to a fresh 96-well plate and L-lactate levels were measured using an L-lactate assay kit as per the manufacturer's instructions.

patients = test system: patients; set-up: method as in McKenzie et al., 1995; conditions: ref McKenzie et al., 1995, cited from earlier work
HepG2 cells [11] = assay: Mitochondrial DNA content by real-time PCR; format: cell-based, human; conditions: HepG2, 1.3–100 μM, up to 72 h
Experimental: as §3
Figure Supp 3: Mitochondrial DNA content in HepG2 cells exposed to FIAU (48 and 72 h). MtDNA content was measured by real-time PCR. HepG2 cells were exposed to FIAU (10 and 100 µM) at 48 h (black bar) and 72 h (grey bar). All results are presented as % of vehicle control. n=3.

HepG2 cells [12] = assay: Seahorse XFe mitochondrial stress test; format: cell-based, human; conditions: HepG2, 1.3–100 μM, up to 72 h
Experimental: as §2
Figure Supp 4: The effect of FIAU on mitochondrial respiratory activity of HepG2 cells. The bioenergetic parameters of HepG2 cells following exposure to FIAU (12 µM) were calculated using Seahorse respirometry at 48 h (black bar) and 72 h (grey bar). All results are presented as % of vehicle control. Key: dashed line marks vehicle control at 100 %. n=3.

[13] = set-up: method as in Bowsher et al., 1994; conditions: healthy volunteers, 5 mg single dose; ref Bowsher et al., 1994; cited from earlier work

O=c1[nH]c(=O)n([C@@H]2O[C@H](CO)[C@@H](O)[C@H]2F)cc1I [FIAM]
Cytotoxic effects (HepaRG cells [1]; HepaRG cells, up to 4 weeks): no cytotoxic effects
Cellular ATP content or cell viability compared to vehicle control (HepaRG cells [1]; HepaRG, 4-week incubation period): no significant differences; also recorded: did not induce any decrease
Mitochondrial respiration (HepaRG cells [2]; 2 weeks, 12 μM and up to 100 μM): did not reduce mitochondrial respiration

O=c1[nH]c(=O)n([C@@H]2O[C@H](CO)[C@@H](O)[C@@H]2F)cc1I [FIAU, fialuridine]
Concentration at which toxic effects were observed (HepaRG cells [1]; HepaRG, extended dosing, 2 weeks): around 10 μM
IC50 (HepaRG cells [1]; HepaRG, wk 3 exposure, galactose media, read-out: IC50-ATP ± S.D., Galactose): 5.7 ± 2.8 µM
IC50 (HepaRG cells [1]; Homo sapiens, HepaRG, wk 1, galactose media, total cellular protein, read-out: IC50-viability ± S.D., Galactose): 101 ± 27 µM
IC50 (HepaRG cells [1]; Homo sapiens, HepaRG, wk 1, glucose media, total cellular protein, read-out: IC50-viability ± S.D., Glucose): 118 ± 42 µM
IC50 (HepaRG cells [1]; Homo sapiens, HepaRG, wk 1 exposure, galactose media, read-out: IC50-ATP ± S.D., Galactose): 103 ± 13.8 µM
IC50 (HepaRG cells [1]; Homo sapiens, HepaRG, wk 1 exposure, glucose media, read-out: IC50-ATP ± S.D., Glucose): 112 ± 32.8 µM
IC50 (HepaRG cells [1]; Homo sapiens, HepaRG, wk 2, galactose media, total cellular protein, read-out: IC50-viability ± S.D., Galactose): 7.3 ± 3.8 µM
IC50 (HepaRG cells [1]; Homo sapiens, HepaRG, wk 2, glucose media, total cellular protein, read-out: IC50-viability ± S.D., Glucose): 26.1 ± 9.3 µM
IC50 (HepaRG cells [1]; Homo sapiens, HepaRG, wk 2 exposure, glucose media, read-out: IC50-ATP ± S.D., Glucose): 16.8 ± 2.3 µM
IC50 (HepaRG cells [1]; Homo sapiens, HepaRG, wk 3, galactose media, total cellular protein, read-out: IC50-viability ± S.D., Galactose): 15.5 ± 3.4 µM
IC50 (HepaRG cells [1]; Homo sapiens, HepaRG, wk 3, glucose media, total cellular protein, read-out: IC50-viability ± S.D., Glucose): 14.2 ± 1.3 µM
IC50 (HepaRG cells [1]; Homo sapiens, HepaRG, wk 3 exposure, galactose media, read-out: IC50-ATP ± S.D., Galactose): 5 µM
IC50 (HepaRG cells [1]; Homo sapiens, HepaRG, wk 3 exposure, glucose media, read-out: IC50-ATP ± S.D., Glucose): 5.4 ± 2.3 µM
IC50 (HepaRG cells [1]; Homo sapiens, HepaRG, wk 4, galactose media, total cellular protein, read-out: IC50-viability ± S.D., Galactose): 3.6 ± 2.8 µM
IC50 (HepaRG cells [1]; Homo sapiens, HepaRG, wk 4, glucose media, total cellular protein, read-out: IC50-viability ± S.D., Glucose): 7.6 ± 3.3 µM
IC50 (HepaRG cells [1]; Homo sapiens, HepaRG, wk 4 exposure, galactose media, read-out: IC50-ATP ± S.D., Galactose): 7.3 ± 0.5 µM
IC50 (HepaRG cells [1]; Homo sapiens, HepaRG, wk 4 exposure, glucose media, read-out: IC50-ATP ± S.D., Glucose): 4.9 ± 1.5 µM
Individual mean mitochondrial area (HepaRG cells [3]): 0.19 ± 0.01 μm^2
Number of mitochondria (HepaRG cells [3]): 0.80 ± 0.20 mitochondria/μm^2 of cytosol
Accumulation of intracellular lipids (oil red O) (HepaRG cells [4]): no accumulation of intracellular lipids
mtDNA replication (HepG2 cells [5]): decreases
Total cellular protein, % of vehicle control (HepG2 cells [6]; galactose media): 40.5 ± 13.4%
Total cellular protein, % of vehicle control (HepG2 cells [6]; glucose media): 49.0 ± 22.7%
Classification as mitotoxin (HepG2 cells [6]; HepG2 cells, up to 3 days): cannot be classified as a mitotoxin
Parameters of oxygen consumption (BR, ALR, MR, SRC, PL, CE) (HepaRG cells [2]; 12 μM, 1 week): no significant changes
ATP-linked respiration (ALR), % of vehicle control (HepaRG cells [2]; 12 μM, 2 weeks): 77.4 ± 21.5%
Basal respiration (BR), % of vehicle control (HepaRG cells [2]; 12 μM, 2 weeks): 85.7 ± 28.1%
Maximal respiration (MR), % of vehicle control (HepaRG cells [2]; 12 μM, 2 weeks): 72.0 ± 19.1%
Proton leak (PL) and coupling efficiency (CE) (HepaRG cells [2]; 12 μM, 2 weeks): remained unchanged
Spare respiratory capacity (SRC), % of vehicle control (HepaRG cells [2]; 12 μM, 2 weeks): 65.9 ± 15.5%
Extracellular acidification rate (HepaRG cells [2]; over 2 weeks of treatment): no dose- or time-dependent increases
IC50 (PHH spheroids): 0.7 µM
TC50 (Toxicity Concentration) (HepG2 cells [7]): 35 µM
mtDNA content, % of vehicle control (HepaRG cells [8]; 4 μM, week 1): 59.2 ± 26.5%
mtDNA content, % of vehicle control (HepaRG cells [8]; 10 μM, 1 week): 23.5 ± 11.9%
mtDNA content, % of vehicle control (HepaRG cells [8]; 10 μM, 4 weeks): 5.8 ± 3.0%
Complex I activity, % of vehicle control ([9]; 2 weeks): 26.9 ± 6.9%
Complex II activity, % of vehicle control ([9]; 2 weeks): 35.5 ± 17.7%
Complex IV activity, % of vehicle control ([9]; 2 weeks): 36.0 ± 15.9%
Complex I activity, % of vehicle control ([9]; week 1): 67.4 ± 13.5%
Complex II activity, % of vehicle control ([9]; week 1): 70.3 ± 9.8%
Extracellular L-lactate in cell supernatant (HepaRG cells [10]): no significant increase in L-lactate
Adverse effects in clinical trial (patients; extended trial period): five deaths from acute liver failure
Time at which toxicity became apparent (patients; week of treatment): > 13 week
Mitochondrial copy number (HepG2 cells [11]): no significant differences in mitochondrial copy number
Bioenergetic parameters (HepG2 cells [12]): no significant differences in bioenergetic parameters
Cmax [13]: 600 nM
